In publication PMC4370687, “Functional Characterization of the 1,5-Benzodiazepine Clobazam and Its Major Active Metabolite N-Desmethylclobazam at Human GABAA Receptors Expressed in Xenopus laevis Oocytes” (PLoS ONE, 2015):
Marks after values point to notes of the source that are not given here.

Assays:
[1] = molecular target: T1, human α2β2γ2S GABAAR (Homo sapiens, UniProt P18507+P47869+P47870); experiment: Potentiation of GABA EC20-evoked currents, TEVC in Xenopus oocytes; type: cell-based; settings: for Imax ± S.E.M.: % of the response evoked by GABA EC20 (EC20 response = 100%)
T1 construct: expressed in transfected cells; host or cells: Xenopus laevis oocytes (cRNA injection, α:β2:γ2S 1:1:1; 1:1:5 in the zolpidem comparison)
Protocol: (§1) The cDNAs encoding the human GABAAR subunits were linearized with DraIII (α1, α2, α3, α5 and α6), SmaI (β2 and γ2S) or StuI (δ) and used as templates for in vitro cRNA synthesis using the T7 mMESSAGE mMACHINE High Yield Capped RNA Transcription Kit (Life Technologies Corporation, Carlsbad, CA, USA). Except where otherwise indicated, Xenopus oocytes were injected with 36.8 nL cRNA solution encoding for α1β2γ2S, α2β2γ2S, α3β2γ2S and α5β2γ2S GABAARs in a 1:1:1 α:β2:γ2S ratio (2.7 ng/μL of each subunit), with 46 nL cRNA solution encoding for the α6β2δ GABAAR in a 10:1:10 α6:β2:δ ratio (1:0.1:1 μg/μL), with 18 nL cRNA solution encoding for the α1β2 GABAAR in a 1:1 α1:β2 ratio (0.6:0.6 μg/μL), or with 46 nL cRNA encoding for α6β2 (α6:β2 ratio: 1:0.1 μg/μL). Following injection, the oocytes were incubated at 18°C in modified Barth’s solution [88 mM NaCl, 1 mM KCl, 15 mM HEPES (pH 7.5), 2.4 mM NaHCO3, 0.41 mM CaCl2, 0.82 mM MgSO4, 0.3 mM Ca(NO3)2, 100 U/mL penicillin and 100 μg/mL streptomycin]. Electrophysiological recordings were performed 3 to 6 days after injection.
(§2) Electrophysiological recordings were performed using the TEVC technique on Xenopus oocytes expressing various GABAAR combinations using a protocol adapted from previous studies. […] Cells were impaled with agar-plugged 0.5–1 MΩ electrodes containing 3 M KCl and voltage clamped at −70 mV by a Gene Clamp 500B amplifier (Axon Instruments, Union City, CA, USA) and recorded with pClamp 10 (Windows version, Molecular Devices, LLC, Sunnyvale, CA, USA). The oocytes were continuously perfused with Ringer buffer, and the test compounds were applied in the perfusate. Experiments were performed at room temperature and each data point represents the mean ± S.E.M. value of recordings performed on at least two oocytes from at least two different batches of oocytes. The recorded baseline-to-peak current amplitudes were analyzed using Clampfit 10.1 (Axon Instruments, Union City, CA, USA). […] The presence of δ in cell surface-expressed receptors in α6β2δ-injected oocytes was confirmed on a routinely basis using the δ-GABAAR selective PAM DS2 (1 μM). Furthermore, taking advantage of the differential sensitivity of αβ and αβδ receptors to Zn^2+ as antagonist, 1 μM ZnCl2 was used to verify that a homogenous population of ternary α6β2δ receptor complexes was expressed in these oocytes.
(§3) Two to five minutes of wash time between each application were permitted to overcome receptor desensitization. […] Concentration-response curves for the benzodiazepines were fitted using Equation 1.
To address this aspect, we compared the maximum responses mediated by saturating concentrations (3 μM) of clobazam, N-desmethylclobazam, and clonazepam at the GABAARs with the maximal responses mediated by a saturating concentration of diazepam, a 1,4-benzodiazepine often referred to as a “full benzodiazepine agonist”. […] We also compared the maximum degree of potentiation mediated by clobazam at the α2β2γ2S GABAAR with the maximal responses induced by a saturating concentration of zolpidem. […] In this experiment cRNA for α2β2γ2S was injected in a ratio of 1:1:5 (α2:β2:γ2S) to facilitate the expression of a homogenous population of γ2S-containing complexes.

[2] = molecular target: T2, human α3β2γ2S GABAAR (Homo sapiens, UniProt P18507+P34903+P47870); experiment: as above; type: cell-based; settings: for Imax ± S.E.M.: % of the response evoked by GABA EC20 (EC20 response = 100%)
T2 construct: expressed in transfected cells; host or cells: Xenopus laevis oocytes (cRNA injection, 1:1:1)
Protocol: as §1, §2, §3

[3] = molecular target: T3, human α5β2γ2S GABAAR (Homo sapiens, UniProt P18507+P31644+P47870); experiment: as above; type: cell-based; settings: for Imax ± S.E.M.: % of the response evoked by GABA EC20 (EC20 response = 100%)
T3 construct: expressed in transfected cells; host or cells: Xenopus laevis oocytes (cRNA injection, 1:1:1)
Protocol: as §1, §2, §3

[4] = molecular target: T4, human α6β2 GABAAR (Homo sapiens, UniProt P47870+Q16445); experiment: as above; type: cell-based
T4 construct: expressed in transfected cells; host or cells: Xenopus laevis oocytes (cRNA injection)
Protocol: as §1, §2, §3

[5] = molecular target: T5, human α6β2δ GABAAR (Homo sapiens, UniProt P47870+Q16445); experiment: as above; type: cell-based; settings: for EC50: EC50, PAM, co-applied with GABA EC20, N-desmethylclobazam value estimated, curve not saturated at 1 mM
T5 construct: expressed in transfected cells; host or cells: Xenopus laevis oocytes (cRNA injection, α6:β2:δ 10:1:10)
Protocol: as §1, §2, §3

[6] = molecular target: T6, human α1β2γ2S GABAAR (Homo sapiens, UniProt P14867+P18507+P47870); settings: % of the response evoked by GABA EC20 (EC20 response = 100%)
Protocol: (§5) Electrophysiological recordings were performed using the TEVC technique on Xenopus oocytes expressing various GABAAR combinations using a protocol adapted from previous studies [44, 45]. […] Cells were impaled with agar-plugged 0.5–1 MΩ electrodes containing 3 M KCl and voltage clamped at −70 mV by a Gene Clamp 500B amplifier (Axon Instruments, Union City, CA, USA) and recorded with pClamp 10 (Windows version, Molecular Devices, LLC, Sunnyvale, CA, USA). The oocytes were continuously perfused with Ringer buffer, and the test compounds were applied in the perfusate. Experiments were performed at room temperature and each data point represents the mean ± S.E.M. value of recordings performed on at least two oocytes from at least two different batches of oocytes. The recorded baseline-to-peak current amplitudes were analyzed using Clampfit 10.1 (Axon Instruments, Union City, CA, USA).

[7] = test system: rat α3β3γ2L GABAAR; settings: patch clamp, cited from earlier work; for EC50: 3 μM GABA (EC10–EC20), HEK-293T cells; for Imax: % of the responses evoked by GABA EC10–EC20, HEK-293T cells
[8] = test system: human α1,2,3,5β2γ2S GABAARs; settings: cited from earlier work
[9] = molecular target: T6, human α1β2γ2S GABAAR; experiment: cell-based
Protocol: as §5

[10] = humans; cited from earlier work
[11] = molecular target: T7, human α1β2 GABAAR (Homo sapiens, UniProt P14867+P47870); experiment: Zinc-mediated inhibition of GABA EC80-evoked currents, TEVC in Xenopus oocytes; type: cell-based; settings: 100 μM Zn2+, 10 μM GABA (EC80), mean ± S.E.M.
T7 construct: expressed in transfected cells; host or cells: Xenopus laevis oocytes (cRNA injection, α1:β2 1:1)
T7 sequence (P14867 28-456): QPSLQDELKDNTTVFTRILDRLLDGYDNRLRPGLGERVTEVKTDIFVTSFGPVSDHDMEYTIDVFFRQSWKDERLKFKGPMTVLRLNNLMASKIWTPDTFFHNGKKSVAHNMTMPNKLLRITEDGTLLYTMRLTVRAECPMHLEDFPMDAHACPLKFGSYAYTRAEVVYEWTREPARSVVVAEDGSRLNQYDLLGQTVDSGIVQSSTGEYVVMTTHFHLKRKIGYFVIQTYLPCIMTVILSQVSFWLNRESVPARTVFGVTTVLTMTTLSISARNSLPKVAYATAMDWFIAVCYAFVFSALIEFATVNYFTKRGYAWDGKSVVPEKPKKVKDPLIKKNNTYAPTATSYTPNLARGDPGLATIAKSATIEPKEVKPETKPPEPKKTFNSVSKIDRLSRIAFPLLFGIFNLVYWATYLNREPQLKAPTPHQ
T7 sequence (P47870 26-474 isoform P47870-1 limits assumed): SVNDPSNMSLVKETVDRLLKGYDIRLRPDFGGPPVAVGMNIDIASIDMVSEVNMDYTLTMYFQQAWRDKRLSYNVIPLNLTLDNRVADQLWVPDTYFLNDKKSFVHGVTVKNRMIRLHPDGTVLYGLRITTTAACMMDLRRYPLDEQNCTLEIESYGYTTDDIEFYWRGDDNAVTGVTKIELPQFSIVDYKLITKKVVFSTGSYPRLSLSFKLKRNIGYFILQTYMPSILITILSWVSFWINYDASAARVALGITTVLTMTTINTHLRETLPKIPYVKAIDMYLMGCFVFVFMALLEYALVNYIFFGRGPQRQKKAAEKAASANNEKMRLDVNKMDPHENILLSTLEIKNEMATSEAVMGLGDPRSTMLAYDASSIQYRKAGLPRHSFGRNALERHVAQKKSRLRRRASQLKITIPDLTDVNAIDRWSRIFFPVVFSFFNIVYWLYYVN
Protocol: as §1, with “Following injection, the oocytes were incubated at 18°C in modified Barth’s solution [88 mM NaCl, 1 mM KCl, 15 mM HEPES (pH 7.5), 2.4 mM NaHCO3, 0.41 mM CaCl2, 0.82 mM MgSO4, 0.3 mM Ca(NO3)2, 100 U/mL penicillin and 100 μg/mL streptomycin]. Electrophysiological recordings were performed 3 to 6 days after injection.” left out
(§4) Electrophysiological recordings were performed using the TEVC technique on Xenopus oocytes expressing various GABAAR combinations using a protocol adapted from previous studies. […] Cells were impaled with agar-plugged 0.5–1 MΩ electrodes containing 3 M KCl and voltage clamped at −70 mV by a Gene Clamp 500B amplifier (Axon Instruments, Union City, CA, USA) and recorded with pClamp 10 (Windows version, Molecular Devices, LLC, Sunnyvale, CA, USA). […] The recorded baseline-to-peak current amplitudes were analyzed using Clampfit 10.1 (Axon Instruments, Union City, CA, USA). […]

[12] = molecular target: T6, human α1β2γ2S GABAAR; experiment: as above; type: cell-based; set-up: expressed in transfected cells; host or cells: Xenopus laevis oocytes (cRNA injection, α:β2:γ2S 1:1:1); settings: 100 μM Zn2+, 100 μM GABA (EC80), mean ± S.E.M.
Protocol: as §1, with “Following injection, the oocytes were incubated at 18°C in modified Barth’s solution [88 mM NaCl, 1 mM KCl, 15 mM HEPES (pH 7.5), 2.4 mM NaHCO3, 0.41 mM CaCl2, 0.82 mM MgSO4, 0.3 mM Ca(NO3)2, 100 U/mL penicillin and 100 μg/mL streptomycin]. Electrophysiological recordings were performed 3 to 6 days after injection.” left out
as §4

[13] = test system: α1β2γ1 receptors; settings: Xenopus oocytes; cited from earlier work
[14] = 1 mM compound, in % of the GABA EC20 response, curve not saturated

T1 sequence (P47869 29-451, one chain of several): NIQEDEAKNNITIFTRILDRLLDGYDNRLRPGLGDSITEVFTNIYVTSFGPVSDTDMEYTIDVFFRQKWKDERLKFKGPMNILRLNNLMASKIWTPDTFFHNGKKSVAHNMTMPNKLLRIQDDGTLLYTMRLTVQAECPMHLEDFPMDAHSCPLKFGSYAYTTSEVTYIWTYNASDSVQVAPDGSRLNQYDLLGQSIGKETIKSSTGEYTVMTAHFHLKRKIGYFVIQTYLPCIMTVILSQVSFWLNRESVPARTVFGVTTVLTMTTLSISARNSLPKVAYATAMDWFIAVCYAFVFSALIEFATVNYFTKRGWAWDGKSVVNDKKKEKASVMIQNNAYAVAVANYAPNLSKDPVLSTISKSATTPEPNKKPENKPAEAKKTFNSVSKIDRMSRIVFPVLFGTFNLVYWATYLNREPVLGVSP
T1 sequence (P18507 40-467 isoform P18507-1 limits assumed, one chain of several): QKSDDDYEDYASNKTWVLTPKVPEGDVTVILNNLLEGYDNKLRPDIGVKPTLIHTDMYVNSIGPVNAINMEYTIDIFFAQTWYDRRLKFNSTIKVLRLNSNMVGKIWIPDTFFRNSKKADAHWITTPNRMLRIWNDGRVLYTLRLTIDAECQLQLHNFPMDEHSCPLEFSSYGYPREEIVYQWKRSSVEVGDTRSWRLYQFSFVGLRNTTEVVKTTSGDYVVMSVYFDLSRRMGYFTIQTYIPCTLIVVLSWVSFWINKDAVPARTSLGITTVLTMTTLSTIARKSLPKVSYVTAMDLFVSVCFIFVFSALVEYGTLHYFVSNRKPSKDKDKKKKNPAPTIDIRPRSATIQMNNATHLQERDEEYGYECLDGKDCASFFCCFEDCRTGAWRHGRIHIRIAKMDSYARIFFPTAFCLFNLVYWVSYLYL
T2 sequence (P34903 29-492, one chain of several): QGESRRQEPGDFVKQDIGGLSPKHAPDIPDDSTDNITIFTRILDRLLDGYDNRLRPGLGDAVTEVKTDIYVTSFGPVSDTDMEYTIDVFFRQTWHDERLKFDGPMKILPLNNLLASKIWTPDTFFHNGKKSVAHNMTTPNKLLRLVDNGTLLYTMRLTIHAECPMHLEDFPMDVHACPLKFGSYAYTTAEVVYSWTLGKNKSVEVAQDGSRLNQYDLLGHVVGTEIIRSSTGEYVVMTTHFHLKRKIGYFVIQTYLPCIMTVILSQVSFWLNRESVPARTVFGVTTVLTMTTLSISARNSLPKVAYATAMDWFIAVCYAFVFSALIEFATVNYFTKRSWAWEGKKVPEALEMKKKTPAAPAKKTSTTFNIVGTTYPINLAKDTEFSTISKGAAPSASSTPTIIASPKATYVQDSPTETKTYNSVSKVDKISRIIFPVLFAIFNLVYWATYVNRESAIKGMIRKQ
T2 sequence (P18507 40-467 isoform P18507-1 limits assumed, one chain of several): as the sequence (P18507 40-467 isoform P18507-1 limits assumed, one chain of several) above
T6 sequence (P18507 40-467 isoform P18507-1 limits assumed, one chain of several): as above
T3 sequence (P31644 32-462, one chain of several): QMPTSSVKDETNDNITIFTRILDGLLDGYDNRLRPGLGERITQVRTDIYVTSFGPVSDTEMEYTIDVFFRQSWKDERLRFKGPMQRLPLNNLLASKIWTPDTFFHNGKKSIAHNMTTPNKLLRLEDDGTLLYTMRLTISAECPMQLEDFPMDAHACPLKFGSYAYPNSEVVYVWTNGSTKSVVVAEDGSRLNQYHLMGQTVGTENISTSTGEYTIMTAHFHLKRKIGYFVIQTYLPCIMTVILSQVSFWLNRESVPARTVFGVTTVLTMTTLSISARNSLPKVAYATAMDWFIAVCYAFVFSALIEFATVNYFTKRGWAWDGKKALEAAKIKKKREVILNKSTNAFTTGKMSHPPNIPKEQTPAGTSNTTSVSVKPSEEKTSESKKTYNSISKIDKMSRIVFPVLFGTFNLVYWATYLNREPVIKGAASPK
T3 sequence (P18507 40-467 isoform P18507-1 limits assumed, one chain of several): as the sequence (P18507 40-467 isoform P18507-1 limits assumed, one chain of several) above
T5 sequence (Q16445 20-453, one chain of several): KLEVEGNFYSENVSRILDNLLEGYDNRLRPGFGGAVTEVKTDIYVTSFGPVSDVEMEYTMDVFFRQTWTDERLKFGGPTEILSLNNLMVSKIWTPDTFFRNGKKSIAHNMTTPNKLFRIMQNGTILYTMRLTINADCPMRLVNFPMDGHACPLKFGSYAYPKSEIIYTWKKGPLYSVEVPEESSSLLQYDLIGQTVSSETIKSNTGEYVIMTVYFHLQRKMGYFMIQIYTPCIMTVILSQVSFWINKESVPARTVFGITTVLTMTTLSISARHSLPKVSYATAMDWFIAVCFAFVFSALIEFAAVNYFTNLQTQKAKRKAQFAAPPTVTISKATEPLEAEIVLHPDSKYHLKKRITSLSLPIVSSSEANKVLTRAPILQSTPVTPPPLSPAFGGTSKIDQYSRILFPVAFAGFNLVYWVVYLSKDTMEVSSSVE
T5 sequence (O14764 25-452 partner, one chain of several): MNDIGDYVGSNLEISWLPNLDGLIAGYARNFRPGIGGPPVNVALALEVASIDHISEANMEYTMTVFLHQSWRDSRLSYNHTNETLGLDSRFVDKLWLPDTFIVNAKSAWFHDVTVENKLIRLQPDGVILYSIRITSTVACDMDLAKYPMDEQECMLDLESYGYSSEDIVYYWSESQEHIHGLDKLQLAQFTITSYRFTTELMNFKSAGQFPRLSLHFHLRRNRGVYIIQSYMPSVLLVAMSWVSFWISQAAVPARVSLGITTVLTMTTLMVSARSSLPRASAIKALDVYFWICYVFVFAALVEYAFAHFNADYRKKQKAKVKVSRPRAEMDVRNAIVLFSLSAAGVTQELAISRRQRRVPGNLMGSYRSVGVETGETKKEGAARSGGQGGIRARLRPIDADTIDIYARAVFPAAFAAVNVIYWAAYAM
T4 sequence (Q16445 20-453, one chain of several): as the sequence (Q16445 20-453, one chain of several) above

With `O=C1CC(=O)N(c2ccccc2)c2cc(Cl)ccc2N1` [N-desmethylclobazam] the EC50 [1] was 138 nM, the “Imax ± S.E.M.” value [1] was 270 ± 20% and the EC50 [2] was 282 nM. For the same compound, the “Imax ± S.E.M.” value [2] was 270 ± 27%, the EC50 [3] was 98 nM and the “Imax ± S.E.M.” value [3] was 233 (248 and 217) ^b %. The EC50 [4] was ~300000 nM, the “current evoked by 1 mM (given instead of Imax)” value [4, 14] was 2350 ± 200 ^a % and the “fold potentiation of the GABA EC20-evoked response” value ([5]; 1 mM compound, curve not saturated) was ~24 fold. The “current evoked by 1 mM (given instead of Imax)” value [5, 14] was 2420 ± 210 ^a %, the EC50 [5] was ~300000 nM and the “Imax ± S.E.M.” value [6] was 203 ± 8.5%. The EC50 [7] was 550 nM, the Imax [7] was 270% and the “fold higher binding affinity at α2β2γ2S compared to α1β2γ2S” value [8] was 4.3 fold. The EC50 [9] was 151 nM and the plasma half-life [10] was 79 h.

With `[Cl-].[Cl-].[Zn+2]` [Zn^2+, ZnCl2] the “degree of inhibition of GABA EC80-evoked currents” value [11] was 77 ± 6.3% and the “degree of inhibition of GABA EC80-evoked currents” value [12] was 4.7 ± 4.6%.

With `CN1C(=O)CC(=O)N(c2ccccc2)c2cc(Cl)ccc21` [clobazam] the EC50 [1] was 138 nM, the “Imax ± S.E.M.” value [1] was 261 ± 6.7% and the EC50 [2] was 240 nM. The “Imax ± S.E.M.” value [2] was 269 ± 0.8%, the EC50 [3] was 174 nM and the “Imax ± S.E.M.” value [3] was 216 ± 7.0%. For the same compound, the “Imax ± S.E.M.” value ([5]; % of the response evoked by GABA EC20 (EC20 response = 100%)) was 528 ± 46%, the EC50 [5] was 55000 nM and the “Imax ± S.E.M.” value [6] was 256 ± 12%. The EC50 [7] was 490 nM, the Imax [7] was 487% and the “fold higher binding affinity at α2β2γ2S compared to α1β2γ2S” value [8] was 2.5 fold. For the same compound, the “potentiation of GABA EC5-EC10-evoked responses” value [13] was “negligible potentiation”, the EC50 [9] was 132 nM and the plasma half-life [10] was 36 h.
